Source: patent publication US7253187B2, “Heterocyclic inhibitors of ERK2 and uses thereof” (Vertex Pharmaceuticals Incorporated, priority 2001, dated 2007)

How the values were obtained:
[1] = target: ERK2 (Homo sapiens, UniProt P28482); test: ERK2 inhibition assay (spectrophotometric coupled-enzyme assay); type: biochemical; conditions: read-out: ERK2 Inhibitory Activity (Ki class D-F)
Experimental: The IC50 was evaluated from the rate data as a function of inhibitor concentration. […] The compound numbers correspond to the compound numbers in Table 1.

[2] = target: AKT3 (Homo sapiens, UniProt Q9Y243); test: AKT3 inhibition assay (coupled enzyme assay); type: biochemical
Sequence of AKT3 (Q9Y243 whole entry, species assumed): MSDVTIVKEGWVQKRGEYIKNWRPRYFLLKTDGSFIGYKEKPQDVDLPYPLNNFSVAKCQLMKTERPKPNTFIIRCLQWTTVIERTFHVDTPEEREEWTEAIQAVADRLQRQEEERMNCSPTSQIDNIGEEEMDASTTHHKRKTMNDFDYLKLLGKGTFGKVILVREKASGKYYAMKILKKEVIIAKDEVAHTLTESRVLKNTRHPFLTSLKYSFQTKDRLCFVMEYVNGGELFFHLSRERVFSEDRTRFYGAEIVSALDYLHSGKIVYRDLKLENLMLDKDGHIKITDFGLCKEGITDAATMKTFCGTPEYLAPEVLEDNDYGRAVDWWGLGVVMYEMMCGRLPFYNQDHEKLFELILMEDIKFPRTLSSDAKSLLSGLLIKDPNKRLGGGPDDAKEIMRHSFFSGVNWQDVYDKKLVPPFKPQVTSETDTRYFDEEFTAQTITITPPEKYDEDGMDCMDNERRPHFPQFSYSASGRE
Experimental: Compounds were screened for their ability to inhibit AKT3 using a standard coupled enzyme assay (Fox et al., Protein Sci., (1998) 7, 2249). Assays were carried out in a mixture of 100 mM HEPES 7.5, 10 mM MgCl2, 25 mM NaCl , 1 mM DTT and 1.5% DMSO. Final substrate concentrations in the assay were 170 μM ATP (Sigma Chemicals) and 200 μM peptide (RPRAATF, American Peptide, Sunnyvale, Calif.). Assays were carried out at 30° C. and 45 nM AKT3. Final concentrations of the components of the coupled enzyme system were 2.5 mM phosphoenolpyruvate, 300 μM NADH, 30 μg/ML pyruvate kinase and 10 μg/ml lactate dehydrogenase.
An assay stock buffer solution was prepared containing all of the reagents listed above, with the exception of AKT3, DTT, and the test compound of interest. 56 μl of the stock solution was placed in a 384 well plate followed by addition of 1 μl of 2 mM DMSO stock containing the test compound (final compound concentration 30 μM). The plate was preincubated for about 10 minutes at 30° C. and the reaction initiated by addition of 10 μl of enzyme (final concentration 45 nM) and 1 mM DTT. Rates of reaction were obtained using a BioRad Ultramark plate reader (Hercules, Calif.) over a 5 minute read time at 30° C.

Sequence of ERK2 (P28482 whole entry): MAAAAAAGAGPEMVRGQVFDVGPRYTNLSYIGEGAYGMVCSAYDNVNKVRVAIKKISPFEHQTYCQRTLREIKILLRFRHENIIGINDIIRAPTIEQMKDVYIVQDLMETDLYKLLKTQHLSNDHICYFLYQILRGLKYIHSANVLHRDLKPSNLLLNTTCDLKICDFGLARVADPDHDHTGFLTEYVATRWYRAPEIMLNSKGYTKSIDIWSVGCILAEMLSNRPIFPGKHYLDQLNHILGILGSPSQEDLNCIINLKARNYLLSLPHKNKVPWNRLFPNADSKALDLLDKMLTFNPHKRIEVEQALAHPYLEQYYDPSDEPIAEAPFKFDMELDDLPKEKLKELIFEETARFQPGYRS

## Cc1cnc(NC#N)nc1-c1c[nH]c(C(=O)NC(CO)c2ccccc2)c1 (centres unmarked) [III-a-238, 4-(2-Cyanoamino-5-methyl-pyrimidin-4-yl)-1H-pyrrole-2-carboxylic acid (2-hydroxy-1-phenyl-ethyl)-amide]
[1]
  Ki: < 0.1 µM
[2]
  inhibit AKT3: inhibit AKT3
